Laboratory results taken from patent publication US6495376B1, “Methods and compositions for regulating protein-protein interactions” (Beth Israel Deaconess Medical Center, priority 1999, dated 2002).
“And” between values parts separate entries of the source, which are not always exact repeats. Equal values may be shown once. “Also recorded” adds a separate entry of the source. Read-outs that look alike come from different tables or passages of the source.

Columns and labels:
WFYpSPFLE (Pintide) = experiment: Fluorescence anisotropy (polarization) binding to fluorescein-labeled phosphorylated Pintide analogue; details: for binding to Pintide (in words): fluorescence anisotropy
From the text: To determine the affinity of Pin1, and its WW or PPIase domain for phosphopeptides, peptides were labeled with fluorescein and their interactions with Pin1 measured using quantitative fluorescence anisotrophy. To prevent nonspecific labeling, a Pintide analogue (WFYpSPFLE) SEQ ID NO: 9 was used, which binds Pin1 with a high affinity based on the peptide library screen as described by (Lu, K. P. et al., U.S. Ser. No. 60/058,164 (1997), the teachings of which are incorporated herein in their entirety.
(§1) Pintide and its nonphosphorylated counterpart were synthesized and incubated with GST-Pin1 or the GST-WW-domain of Pin1 in a binding buffer, using established procedures (Shen, M. et al., Genes & Dev 12:706 (1998)). After a 1 hr incubation, mitotic HeLa cell extracts were added and subjected to GST pull down experiments, followed by immunoblotting analysis using the MPM-2 antibody. To obtain semi-quantitative data, films of immunoblots were scanned at the region of 55 kDa, the major Pin1-binding protein, and data analyzed using ImageQuan (ScanJet II CX). The peptide binding constants were measured using a fluorescence polarization assay (Jiskoot, W. et al., Anal Biochem 196:421 (1991)). Peptides were fluorescein labeled at the N-terminus using the Fluorescein Amine Labeling Kit (Pan Vera Corp.) and purified by TLC according to the manufacturer's […]. To prevent nonspecific labeling, a Pintide analogue (WFYpSPFLE) SEQ ID NO: 8 and the nonphosphorylated control were used. Various concentrations of Pin1 and its mutant proteins were incubated with 0.1 μM of the labeled peptides in a binding buffer containing 50 mM HEPES, pH 7.4, 100 mM NaCl, 2% glycerol. Fluorescence polarization values were obtained using a Pan Vera Beacon 2000 system, as described by the manufacturer.

WFYSPFLE = experiment: Fluorescence anisotropy binding to fluorescein-labeled nonphosphorylated control peptide; details: for WFYSPFLE Kd: nonphosphorylated peptide
[1] = system: mitotically phosphorylated Cdc25C; experiment: GST pull down of phosphorylated Cdc25C and CIP dephosphorylation; format: binding; details: for protection of bound Cdc25C from dephosphorylation by CIP: Cdc25C precipitated on GST beads, then CIP; for binding to Cdc25C (in words): mitotic versus interphase phosphorylated form
From the text: To confirm that Nedd4 WW-domains bind a specific phosphoprotein in a phosphorylation-dependent manner interactions between Nedd4 WW-domains and Cdc25C were examined. To various degrees, all three Nedd4 WW-domains bound the mitotically phosphorylated form, but not the interphase phosphorylated form of both HeLa Cdc25C and in vitro synthesized Xenopus Cdc25C. […] The Kd values for the phosphopeptides were also lower than those for the Pro-rich peptide that was thought to be a Nedd4 WW-domain-binding site (Table 1) (Chen, H. I., et al., Proc. Natl. Acad. Sci. USA 92:7819 (1995); Staub, O., et al., EMBO J. 15:2371 (1996); Bedford, M. J., et al., EMBO J., 16:2376 (1997)).
Interactions between the WW-domain of Pin1 and specific phosphorylated ligands were examined. To detect phosphorylation-dependent interaction, Cdc25C, Plk1 and Pin1 ligands, were synthesized by in vitro transcription and translation in the presence of ^35S-Met and incubated with Xenopus interphase or mitotic extracts or mitotic extracts followed by treatment with calf intestine phosphatase (M+CIP). Protein complexes were separated on SDS-gels either directly (input) or first subjected to GST pull down with the N-terminal WW-domain (amino acids 1-54) or C-terminal PPIase domain (amino acids 47-163) or the entire Pin1 protein (Shen, M. et al., Genes & Dev 12:706 (1998)). The labeled protein-GST bead complexes were washed extensively and bound proteins analyzed by SDS-PAGE and autoradiography using standard techniques.
To determine whether WW-domain binding protects dephosphorylation of its targets ^35S labeled (His)6 epitope tagged Cdc25C was phosphorylated by mitotic extracts and precipitated by GST fusion protein beads or Ni-NTA beads. The isolated Cdc25C was then incubated with control buffer or CIP, followed by separation on SDS-containing gels and autoradiography.

[2] = system: MPM-2 antigens (mitotic phosphoproteins) of mitotic HeLa cell extracts; experiment: GST pulldown from mitotic HeLa cell extracts, MPM-2 immunoblotting (phosphoprotein-binding activity); details: for Phosphoprotein binding activity: GST-fusion proteins with mitotic extracts, MPM2 antibody; for binding to mitotic phosphoproteins / MPM-2 antigens (in words): mitotic HeLa cell extracts; for effect of phosphorylation by PKA on interaction with MPM2 antigens: protein phosphorylated by PKA before binding
Method: GST-fusion proteins containing the WW-domain, PPIase-domain or the entire Pin 1 protein were prepared and incubated with interphase (G1/S arrested; Control) or dividing (M phase) HeLa cell extracts using well-known procedures (Lu, K. P., et al., Nature 380:544 (1996); (Shen, M., et al., Genes & Devl. 12:706 (1998)). Briefly, HeLa cells were arrested at the G1/S boundary or mitosis by incubation with thymidine and aphidicolin or nocodazole for 16 h, respectively. The cells were lysed and supernatants incubated with 10 μl of agarose beads containing GST-Pin1; GST-WW-domain of Pin1; GST-PPIase domain of Pin1; or control GST for 2 h at 4° C. The phosphorylated precipitated proteins were washed 5 times in buffer containing 1% Triton X-100 before subjecting to immunoblotting analysis using MPM-2 antibody, as described previously (Yaffe, M. B. et al., Science 278:1957 (1997); Schukowski, et al., Biochemistry 37:5566 (1998); Shen, M. et al., Genes & Dev 12:706 (1998)). MPM-2 recognizes a subset of mitotic phosphoproteins including Pin1-binding proteins such as cdc25.
as §1
To examine the effect of Pin1 phosphorylation on Pin1 binding to ligands, Pin1 and Pin1 mutant proteins were incubated with the catalytic subunit of PKA and PKC (a mixture of α, β and γ, UBI) in a kinase reaction buffer containing 500 μM cold ATP at 30° C. for 15 min (Lu, K. P. et al., Anal. Biochem. 196:421 (1991)). The reactions were stopped by adding SDS sample buffer and reaction products separated on SDS-gels, followed by autoradiography. Pin1 proteins were isolated and used to bind MPM-2 antigens from mitotic extracts from HeLa cells, as previously described (Shen, M., et al., Genes & Dev 12:706 (1998)). Experiments were also performed with PKA and PKC, casein kinase, cyclin B/Cdc2 and SRPK1 kinases.

[3] = high affinity binding site, read-out: WFYpSPFLE Kd(μM) High affinity

Pin1 WW-domain: N-terminal WW-domain (amino acids 1-54) of Pin1 (MADEEKLPPGWEKRMSRSSGRVYYFNHITNASQWERPSGNSSSGGKNGQGEPAR; left off: a dimerising Fc or GST)
Kd (WFYpSPFLE (Pintide); GST-WW-domains, fluorescein-labeled peptide, average of three independent experiments, read-out: Kd (μM) Pintide WFYpSPFLE): 1 µM
binding to Pintide (in words) (WFYpSPFLE (Pintide)): bound Pintide
Kd (WFYpSPFLE (Pintide); [3]): 1.2 µM and 1 µM
Kd (μM) Pintide nonphosphorylated WFYSPFLE (WFYSPFLE; GST-WW-domains, N.B., not binding detected): N.B.
WFYSPFLE Kd (WFYSPFLE): No binding was detected; also recorded: Not binding
protection of bound Cdc25C from dephosphorylation by CIP [1]: CIP failed to dephosphorylate Cdc25C
binding to Cdc25C (in words) [1]: bound the phosphorylated Cdc25C in mitotic cell extracts, but not interphase extracts
Phosphoprotein binding activity [2]: + (binding was detected)
binding to mitotic phosphoproteins / MPM-2 antigens (in words) [2]: strong binding
effect of phosphorylation by PKA on interaction with MPM2 antigens [2]: completely abolished

Pin1: wild-type human prolyl isomerase (PPIase) Pin1 with N-terminal WW-domain; tag cleaved in Table 2
binding to Pintide (in words) (WFYpSPFLE (Pintide)): bound Pintide
Kd (WFYpSPFLE (Pintide); [3]): 1.2 µM
Kd (WFYpSPFLE (Pintide); low affinity binding site, read-out: WFYpSPFLE Kd(μM) Low affinity): 11 µM
WFYSPFLE Kd (WFYSPFLE): No binding was detected; also recorded: Not binding
protection of bound Cdc25C from dephosphorylation by CIP [1]: CIP failed to dephosphorylate Cdc25C
binding to Cdc25C (in words) [1]: bound the phosphorylated Cdc25C in mitotic cell extracts, but not interphase extracts
Phosphoprotein binding activity [2]: + (binding was detected)
binding to mitotic phosphoproteins / MPM-2 antigens (in words) [2]: strong binding
effect of phosphorylation by PKA on interaction with MPM2 antigens [2]: completely abolished
